Data reported in patent publication US9822068B2, “Inhibitors of fatty acid amide hydrolase (FAAH) enzyme with improved oral bioavailability and their use as medicaments” (THE REGENTS OF THE UNIVERSITY OF CALIFORNIA, priority 2014, dated 2017).
Converted amounts (≈) assume the structure as drawn. Read-outs that look alike come from different tables or passages of the source.

Columns and labels:
[1] = Aqueous kinetic solubility assay; type: physicochemical; details: phosphate buffered saline, aqueous buffer, kinetic from dmso stock, PBS pH 7.4, target 250 μM, 2.5% DMSO, 25° C.
Experimental: Aqueous Kinetic Solubility Assay
The aqueous kinetic solubility was determined from a 10 mM DMSO stock solution of test compound in Phosphate Buffered Saline (PBS) at pH 7.4.
The study was performed by incubation of an aliquot of 10 mM DMSO stock solution in PBS (pH 7.4) at a target concentration of 250 μM resulting in a final concentration of 2.5% DMSO. The incubation was carried out under shaking at 25° C. for 24 h followed by centrifugation. The supernatant was analyzed by UPLC/MS for the quantification of dissolved compound by UV at a specific wavelength (215 nm).
The aqueous kinetic solubility (in μM) was calculated by dividing the peak area of the supernatant by the peak area of the test compound reference and further multiplied by the concentration of the test compound reference and dilution factor.
The UPLC/MS analyses were performed on a Waters ACQUITY UPLC/MS system consisting of a SQD (Single Quadrupole Detector) Mass Spectrometer equipped with an Electrospray Ionization interface and a Photodiode Array Detector. The PDA range was 210-400 nm. The analyses were run on an ACQUITY UPLC BEH C18 column (50×2.1 mmID, particle size 1.7 m) with a VanGuard BEH C18 pre-column (5×2.1 mmID, particle size 1.7 μm). The mobile phase was 10 mM NH4OAc in H2O at pH 5 adjusted with AcOH (A) and 10 mM NH4OAc in MeCN—H2O (95:5) at pH 5 (B). Electrospray ionization in positive and negative mode was applied in the mass scan range 100-500 Da.

Rat FAAH = Rat FAAH (Rattus norvegicus (Rat), UniProt P97612); test: In vitro rat FAAH radiometric assay; type: biochemical; details: rat brain homogenate, 10 min pre-incubation at 37° C.; read-out: r-FAAH IC50
Sequence of Rat FAAH (P97612 whole entry): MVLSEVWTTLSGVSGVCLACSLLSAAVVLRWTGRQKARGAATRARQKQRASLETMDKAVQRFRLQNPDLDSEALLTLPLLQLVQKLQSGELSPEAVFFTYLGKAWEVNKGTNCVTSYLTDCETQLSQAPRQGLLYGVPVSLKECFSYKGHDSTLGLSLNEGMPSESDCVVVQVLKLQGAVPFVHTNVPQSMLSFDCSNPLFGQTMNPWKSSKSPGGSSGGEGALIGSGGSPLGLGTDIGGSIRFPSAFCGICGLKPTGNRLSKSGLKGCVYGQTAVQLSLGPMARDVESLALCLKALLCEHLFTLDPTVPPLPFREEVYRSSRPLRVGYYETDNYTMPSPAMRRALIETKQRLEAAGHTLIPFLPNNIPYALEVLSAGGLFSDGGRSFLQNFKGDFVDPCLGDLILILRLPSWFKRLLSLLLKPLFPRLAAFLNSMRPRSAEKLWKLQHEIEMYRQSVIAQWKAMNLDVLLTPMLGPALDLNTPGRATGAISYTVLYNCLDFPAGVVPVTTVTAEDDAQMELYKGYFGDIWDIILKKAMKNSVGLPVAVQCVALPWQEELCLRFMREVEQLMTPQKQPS
Experimental: In Vitro Rat FAAH Radiometric Assay
Rat FAAH was prepared from male Sprague Dawley rat brains, homogenized in a potter in 20 mM of Tris HCl pH 7.4, 0.32 M sucrose.
The radiometric assay used to measure FAAH activity was performed in Eppendorf tubes: 50 μg of total rat brain homogenate were pre-incubated in 445.5 μL of assay buffer (50 mM Tris-HCl pH 7.4, 0.05% Fatty acid-free-bovine serum albumin (BSA)) with 4.5 μL of inhibitor (at appropriate concentration in DMSO) or DMSO alone (to measure FAAH total activity) for 10 min at 37° C. The blank (no activity control) was prepared using 445.5 μL of assay buffer and 4.5 μL of DMSO without the 50 μg of total rat brain homogenate.
After 10 min of pre-incubation with test compounds, the reaction was started by adding of 50 μL of substrate and incubating for 30 min at 37° C. The substrate was prepared in assay buffer in order to achieve the final concentration of 1 μM arachidonoyl ethanolamide (Cayman Chemical N. 90050) and 0.6 nM anandamide [ethanolamine-1-^3H] (American Radiolabeled Chemicals Inc, ART. 0626, Conc. 1 mCi/mL, S.A. 60 Ci/mmol). The reaction was stopped by adding cold 1:1 CHCl3/MeOH. After 10 min of centrifugation (845×g at 4° C.) 600 μL of aqueous phase were transferred into scintillation vials previously filled with 3 mL of scintillation fluid (Ultima Gold™, Perkin Elmer Inc., Cat. 6013329). Radioactivity was measured by liquid scintillation counting (MicroBeta2 LumiJET Perkin Elmer Inc.).
(§1) Concentrations causing half-maximal inhibition of FAAH, IC50 values, were determined by non-linear regression analysis of the Log [concentration]/response curves generated with mean replicate values using a four parameter Hill equation curve fitting with GraphPad Prism 5 (GraphPad Software Inc., CA—USA).

[2] = Pharmacokinetic experiment in cannulated Sprague-Dawley rats (PO and IV); type: in vivo; details: plasma, rat; for bioavailability: PO 10 mg/kg vs IV 3 mg/kg, read-out: Oral bioavailability (F %)
Experimental: Pharmacokinetic Experiment and Analysis
Compounds were administered orally (PO) and intravenously (IV) to cannulated Sprague-Dawley rats at 10 and 3 mg/kg, respectively. Vehicle was: PEG400/Tween 80/Saline solution at 10/10/80 (% in volume), respectively. Three animals per dose were treated. Blood samples at 0, 15, 30, 60, 120, 240, 480 and 1440 min after administration were collected for PO arm. Blood samples at 0, 5, 15, 30, 60, 120 and 240 min after administration were collected for IV arm. Plasma was separated from blood by centrifugation for 15 min at 3500 rpm a 4° C., collected in a Eppendorf tube and frozen (−80° C.). Control animals treated with vehicle only were also included in the experimental protocol.
Preparation of Samples, Standard Curve and QC Samples for UPLC-MS Analysis
Samples were thawed in an ice bath and after a short centrifugation transferred (50 μL) into a 96-deepwell plate and added with 150 μL of acetonitrile spiked with 200 nM Warfarin (the Internal Standard, I.S.). After agitation (3 min) the plate was centrifuged at 3000 g for 10 min at 4° C. 80 μL of supernatant was then transferred in a 96-well plate and added with 80 μL of water. Standard compound was spiked in neat solvent (PBS pH 7.4 added with 10% acetonitrile) to prepare a calibration curve over the 1 nM-10 μM range. Three quality controls (QCs) samples were also prepared spiking the compound in blank rat plasma to final 20, 200 and 2000 nM concentrations. Calibrators and QCs were crashed with acetonitrile spiked with the I.S. as described for the plasma samples. Dosing solutions, previously diluted 2000 fold in the neat solvent were also included in the samples and tested.
Compounds plasma levels were monitored on a Xevo TQ UPLC-MS/MS system (Waters, Milford USA), using the calibration curve and the internal standard (Warfarin). Chromatography was carried out on a Acquity BEH C18 column (2.1×50 mmID, 1.7 m particle size, Waters, Milford USA). Flow rate was 0.5 mL/min. The mobile phase was (A) H2O/0.1% formic acid; (B) MeCN/0.1% formic acid. A linear gradient was applied from 5 to 100% B in 2 min. 3 μL of each sample were loaded on column. MS parameters and multiple reaction monitoring (MRM) transitions were carefully tuned for each compound. Plasma levels data were analyzed using PKSolutions excel application (Summit Research Service, USA) to derive the most important pharmacokinetic parameters.
The oral bioavailability (F %) data, and the Area Under the Curve (AUC) data (ng×min/mL) corresponding to the IV (3 mg/kg) and PO (10 mg/kg) dose of selected compounds described in the Examples are reported in Table 3. Their F % data are in the range from 35 to 87.

human FAAH-1 = human FAAH-1 (Homo sapiens (Human), UniProt O00519); test: In vitro human FAAH fluorescent assay; type: biochemical; details: human FAAH-1 membrane preparation from HEK-293, 50 min pre-incubation at 37° C.; read-out: h-FAAH IC50
Sequence of human FAAH-1 (O00519 whole entry): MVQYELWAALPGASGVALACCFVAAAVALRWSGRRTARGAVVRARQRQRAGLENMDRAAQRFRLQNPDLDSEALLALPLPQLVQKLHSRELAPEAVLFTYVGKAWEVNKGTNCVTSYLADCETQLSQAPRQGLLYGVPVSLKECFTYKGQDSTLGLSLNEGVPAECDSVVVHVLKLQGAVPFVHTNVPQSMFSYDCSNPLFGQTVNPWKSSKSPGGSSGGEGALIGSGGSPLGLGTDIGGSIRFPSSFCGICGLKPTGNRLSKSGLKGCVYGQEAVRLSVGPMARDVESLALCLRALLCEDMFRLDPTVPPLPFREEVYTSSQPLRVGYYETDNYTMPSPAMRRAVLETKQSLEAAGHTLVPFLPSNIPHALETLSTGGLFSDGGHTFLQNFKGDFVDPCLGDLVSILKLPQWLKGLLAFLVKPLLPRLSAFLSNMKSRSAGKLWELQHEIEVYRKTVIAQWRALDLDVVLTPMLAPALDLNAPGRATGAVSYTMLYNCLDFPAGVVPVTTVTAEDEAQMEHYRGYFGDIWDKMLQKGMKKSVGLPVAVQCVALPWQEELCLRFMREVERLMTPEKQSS
Experimental: In Vitro Human FAAH Fluorescent Assay
Human recombinant FAAH was obtained from a HEK-293 cell line stably overexpressing human FAAH-1 enzyme. Cells were grown in Dulbecco's Modified Eagle Medium (DMEM) medium containing 10% FBS, 1% pen/strep, 1% glutamine and 500 μg/mL G418. To obtain membrane preparation cells were scraped off with cold PBS and collected by centrifugation (500×g, 10 min, 4° C.); the cell pellet was re-suspended in 20 mM Tris-HCl pH 7.4, 0.32M sucrose, disrupted by sonication (10 pulses, 5 times) and centrifuged (800×g, 15 min, 4° C.); the collected supernatant was centrifuged at 105,000×g for 1 h at 4° C. and the pellet was re-suspended in PBS.
The fluorescent assay to measure FAAH activity was performed in 96 wells black plates: 2.5 μg of human FAAH-1 membrane preparation were pre-incubated for 50 min at 37° C., in 180 µL of assay buffer (50 mM TrisHCl pH 7.4, 0.05% Fatty acid-free-BSA) with 10 μL of inhibitor (at appropriate concentration in DMSO) or 10 μL DMSO to measure FAAH total activity. The background (no activity) samples were prepared using 180 μL of assay buffer without human FAAH-1 and 10 μL of DMSO. The reaction was then started by the addition of 10 μL of a 40 μM substrate solution (N. 10005098, Cayman Chemical) dissolved in ethanol, and used at a final concentration of 2 μM. The reaction was carried out for 30 min at 37° C. and fluorescence was measured with a Tecan Infinite M200 nanoquant plate reader (excitation wavelength 350 nm/emission wavelength 460 nm).
as §1

[3] = IV, 3 mg/kg, read-out: AUC IV (3 mg/kg) (converted)
[4] = PO, 10 mg/kg, read-out: AUC PO (10 mg/kg) (converted)

Compound	solubility kinetic at 24 h [1]	IC50 (Rat FAAH)	bioavailability [2]	AUC [2, 3]	AUC [2, 4]	IC50 (human FAAH-1)
CNC(=O)c1cccc(-c2cc(OC(=O)NC3CCCCC3)ccc2F)c1 [Example 1, [4-fluoro-3-[3-(methylcarbamoyl)phenyl]phenyl]N-cyclohexylcarbamate]	28 µM (≈ 10.4 µg/mL)	1.4 nM	87%	1280 ng·h/mL	3700 ng·h/mL	12 nM
NC(=O)c1cccc(-c2cc(OC(=O)NC3CCCCC3)ccc2OC(F)F)c1 [Example 8, [3-(3-carbamoylphenyl)-4-(difluoromethoxy)phenyl] N-cyclohexylcarbamate]	44 µM (≈ 17.8 µg/mL)	1.4 nM	35%	2110 ng·h/mL	2430 ng·h/mL	8.2 nM
